This passage reports IC50 results from US11642348B2, “Substituted benzene compounds” (Epizyme, Inc., priority 2012, dated 2023).

For experiment [1], the target named is wild-type EZH2 (PRC2 complex) (Homo sapiens (Human), UniProt Q15910). Briefly: PRC2 enzyme assay on peptide substrates (wild-type EZH2).
The test system of experiment [2] is H3K27me3 in WSU-DLCL2 cells. The experiment in a line: WSU-DLCL2 methylation assay (H3K27me3 ELISA). The class given is cell-based. As to conditions: Homo sapiens, 96 hours.
Source text: WSU-DLCL2 suspension cells were purchased from DSMZ (German Collection of Microorganisms and Cell Cultures, Braunschweig, Germany). RPMI/Glutamax Medium, Penicillin-Streptomycin, Heat Inactivated Fetal Bovine Serum, and D-PBS were purchased from Life Technologies, Grand Island, N.Y., USA. Extraction Buffer and Neutralization Buffer (5×) were purchased from Active Motif, Carlsbad, Calif., USA. Rabbit anti-Histone H3 antibody was purchased from Abcam, Cambridge, Mass., USA. Rabbit anti-H3K27me3 and HRP-conjugated anti-rabbit-IgG were purchased from Cell Signaling Technology, Danvers, Mass., USA. TMB “Super Sensitive” substrate was sourced from BioFX Laboratories, Owings Mills, Md., USA. IgG-free Bovine Serum Albumin was purchased from Jackson ImmunoResearch, West Grove, Pa., USA. PBS with Tween (10×PBST) was purchased from KPL, Gaithersburg, Md., USA. Sulfuric Acid was purchased from Ricca Chemical, Arlington, Tex., USA. Immulon ELISA plates were purchased from Thermo, Rochester, N.Y., USA. V-bottom cell culture plates were purchased from Corning Inc., Corning, N.Y., USA. V-bottom polypropylene plates were purchased from Greiner Bio-One, Monroe, N.C., USA.
WSU-DLCL2 cells were seeded in assay medium at a concentration of 50,000 cells per mL to a 96-well V-bottom cell culture plate with 200 μL per well. […] Plates were incubated on a titer-plate shaker at 37° C., 5% CO2 for 96 hours. After four days of incubation, plates were spun at 241×g for five minutes and medium was aspirated gently from each well of cell plate without disturbing cell pellet. Pellet was resuspended in 200 μL DPBS and plates were spun again at 241×g for five minutes. The supernatant was aspirated and cold (4° C.) Extraction buffer (100 μL) was added per well. Plates were incubated at 4° C. on orbital shaker for two hours. […] Supernatant (80 μL per well) was transferred to its respective well in 96 well V-bottom polypropylene plate. Neutralization Buffer 5× (20 μL per well) was added to V-bottom polypropylene plate containing supernatant. V-bottom polypropylene plates containing crude histone preparation (CHP) were incubated on orbital shaker×five minutes. Crude Histone Preparations were added (2 μL per well) to each respective well into duplicate 96 well ELISA plates containing 100 μL Coating Buffer (1×PBS+BSA 0.05% w/v). Plates were sealed and incubated overnight at 4° C. The following day, plates were washed three times with 300 μL per well 1×PBST. […] For H3K27me3 detection, 100 μL of HRP conjugated anti-rabbit IgG antibody diluted to 1:4000 in ELISA diluent was added per well. Plates were incubated at room temperature for 90 minutes. […] TMB substrate 100 μL was added per well. Histone H3 plates were incubated for five minutes at room temperature. H3K27me3 plates were incubated for 10 minutes at room temperature. The reaction was stopped with sulfuric acid 1N (100 μL per well). Absorbance for each plate was read at 450 nm.
Each plate included eight control wells of DMSO only treatment (Minimum Inhibition) as well as eight control wells for maximum inhibition (Background wells).
The average of the ratio values for each control type was calculated and used to determine the percent inhibition for each test well in the plate. […] Percent inhibition was determined and IC50 curves were generated using duplicate wells per concentration of compound.
The test system of the next experiment is WSU-DLCL2 cells. The experiment in a line: Cell proliferation analysis (WSU-DLCL2, Cell Titer Glo). As to conditions: Homo sapiens, 6 days. In kind it is cell-based.
[3] abbreviates: WSUDLCL2, Table 3A, read-out: H3K27Me3 ELISA IC50.
Where [4] appears, read: WSUDLCL2, Table 3B, read-out: ELISA H3K27me3 IC50.
The mark [5] stands for this setting: WSUDLCL2, Table 3B, read-out: WSU proliferation IC50.

Where two headings read alike, the source gives them in different places. Where only a bound is given, the exact number is not on record here.

Sequence of wild-type EZH2 (PRC2 complex) (Q15910 other isoform, or with tags, fused parts or gaps): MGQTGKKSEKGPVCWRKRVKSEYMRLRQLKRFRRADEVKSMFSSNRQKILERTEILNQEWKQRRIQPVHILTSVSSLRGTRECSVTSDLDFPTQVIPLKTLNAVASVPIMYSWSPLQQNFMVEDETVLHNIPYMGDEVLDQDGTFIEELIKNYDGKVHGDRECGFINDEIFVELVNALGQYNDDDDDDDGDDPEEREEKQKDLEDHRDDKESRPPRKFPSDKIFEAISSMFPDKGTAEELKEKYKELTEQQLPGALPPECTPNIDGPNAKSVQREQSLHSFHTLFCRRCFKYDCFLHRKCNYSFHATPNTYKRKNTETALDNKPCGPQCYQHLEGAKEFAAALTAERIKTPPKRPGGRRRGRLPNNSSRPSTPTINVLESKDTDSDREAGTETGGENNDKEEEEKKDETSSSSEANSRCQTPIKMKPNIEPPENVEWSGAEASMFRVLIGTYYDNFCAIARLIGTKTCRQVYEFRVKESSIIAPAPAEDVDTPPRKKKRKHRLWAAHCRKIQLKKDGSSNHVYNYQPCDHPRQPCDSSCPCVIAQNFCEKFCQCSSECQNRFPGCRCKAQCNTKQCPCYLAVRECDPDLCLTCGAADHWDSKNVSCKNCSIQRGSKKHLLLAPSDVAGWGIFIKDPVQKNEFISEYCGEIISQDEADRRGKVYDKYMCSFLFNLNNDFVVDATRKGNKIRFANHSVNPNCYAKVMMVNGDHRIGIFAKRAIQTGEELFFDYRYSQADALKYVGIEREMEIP
Sequence of wild-type EZH2 (PRC2 complex) (O75530 whole entry partner): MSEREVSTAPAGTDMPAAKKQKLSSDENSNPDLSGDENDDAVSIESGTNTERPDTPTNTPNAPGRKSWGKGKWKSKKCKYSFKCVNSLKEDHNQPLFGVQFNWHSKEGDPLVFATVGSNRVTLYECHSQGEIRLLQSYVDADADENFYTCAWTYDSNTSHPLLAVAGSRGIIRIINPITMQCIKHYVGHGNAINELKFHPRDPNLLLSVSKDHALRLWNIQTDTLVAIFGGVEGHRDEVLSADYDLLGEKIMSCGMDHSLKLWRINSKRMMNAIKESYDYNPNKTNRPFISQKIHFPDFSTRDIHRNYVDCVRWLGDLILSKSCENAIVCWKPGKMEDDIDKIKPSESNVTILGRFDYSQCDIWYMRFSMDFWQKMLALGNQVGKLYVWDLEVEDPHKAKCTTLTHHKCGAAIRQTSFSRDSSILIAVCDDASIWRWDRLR
Sequence of wild-type EZH2 (PRC2 complex) (Q15022 whole entry partner): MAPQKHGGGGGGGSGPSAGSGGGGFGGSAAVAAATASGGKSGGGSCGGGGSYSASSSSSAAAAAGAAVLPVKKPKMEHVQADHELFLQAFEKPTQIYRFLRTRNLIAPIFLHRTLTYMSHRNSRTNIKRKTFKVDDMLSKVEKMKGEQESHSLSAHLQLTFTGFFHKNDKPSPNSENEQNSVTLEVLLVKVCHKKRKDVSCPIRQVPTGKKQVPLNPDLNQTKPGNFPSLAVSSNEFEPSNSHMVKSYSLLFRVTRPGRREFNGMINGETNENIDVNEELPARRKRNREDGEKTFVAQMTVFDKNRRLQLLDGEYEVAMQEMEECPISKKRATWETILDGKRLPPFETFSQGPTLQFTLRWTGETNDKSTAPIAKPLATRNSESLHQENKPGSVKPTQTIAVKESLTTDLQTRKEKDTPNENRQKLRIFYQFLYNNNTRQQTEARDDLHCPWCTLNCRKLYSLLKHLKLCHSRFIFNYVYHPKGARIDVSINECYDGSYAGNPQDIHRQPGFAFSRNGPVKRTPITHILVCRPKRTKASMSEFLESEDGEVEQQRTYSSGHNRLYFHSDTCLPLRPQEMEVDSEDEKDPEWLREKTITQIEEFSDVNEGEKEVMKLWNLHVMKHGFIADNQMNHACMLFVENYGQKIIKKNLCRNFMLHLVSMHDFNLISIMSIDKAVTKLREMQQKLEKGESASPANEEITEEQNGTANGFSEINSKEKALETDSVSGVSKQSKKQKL
Sequence of wild-type EZH2 (PRC2 complex) (Q09028 whole entry partner): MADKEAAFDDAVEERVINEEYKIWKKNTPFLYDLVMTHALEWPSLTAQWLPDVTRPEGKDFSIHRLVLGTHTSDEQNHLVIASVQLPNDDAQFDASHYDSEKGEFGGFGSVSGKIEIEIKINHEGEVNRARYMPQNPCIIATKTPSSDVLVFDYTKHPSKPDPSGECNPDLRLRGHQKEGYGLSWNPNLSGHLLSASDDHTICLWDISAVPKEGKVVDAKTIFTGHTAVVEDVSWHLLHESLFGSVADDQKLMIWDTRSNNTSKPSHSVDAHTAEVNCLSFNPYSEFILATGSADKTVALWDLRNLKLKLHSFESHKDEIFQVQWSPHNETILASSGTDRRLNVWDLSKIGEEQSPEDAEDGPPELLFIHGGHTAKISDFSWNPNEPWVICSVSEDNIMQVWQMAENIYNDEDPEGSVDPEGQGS

In turn, `CCN(c1cc(-c2ccc(OCCOC)nc2)cc(C(=O)NCc2c(C)cc(C)[nH]c2=O)c1C)[C@H]1CC[C@H](N(C)C)CC1` [Compound 5, N-((4,6-dimethyl-2-oxo-1,2-dihydropyridin-3-yl)methyl)-3-(((trans)-4-(dimethylamino)cyclohexyl)(ethyl)amino)-5-(6-(2-methoxyethoxy)pyridin-3-yl)-2-methylbenzamide] had an IC50 in experiment [1] of 13.1 nM.
Turning to `CCN(c1cc(-c2ccc(OCCOCCOC)cc2)cc(C(=O)NCc2c(C)cc(C)[nH]c2=O)c1C)[C@H]1CC[C@H](N(C)C)CC1` [Compound 6, N-((4,6-dimethyl-2-oxo-1,2-dihydropyridin-3-yl)methyl)-5-(((trans)-4-(dimethylamino)cyclohexyl)(ethyl)amino)-4′-(2-(2-methoxyethoxy)ethoxy)-4-methyl-[1,1′-biphenyl]-3-carboxamide], the IC50 in experiment [2] (setting [3]) is 57.5 nM; in experiment [1], 15.4 nM.
The like results for `CCN(c1cc(-c2ccc(OCCOC)cc2)cc(C(=O)NCc2c(OC)cc(C)[nH]c2=O)c1C)[C@H]1CC[C@H](N(C)C)CC1` [Compound 6b, 5-(((trans)-4-(dimethylamino)cyclohexyl)(ethyl)amino)-N-((4-methoxy-6-methyl-2-oxo-1,2-dihydropyridin-3-yl)methyl)-4′-(2-methoxyethoxy)-4-methyl-[1,1′-biphenyl]-3-carboxamide] were, in that order, 33.9 nM and < 5 nM.
The like results for `CCN(c1cc(OC)cc(C(=O)NCc2c(C)cc(C)[nH]c2=O)c1C)[C@H]1CC[C@H](N(C)CCOC)CC1` [Compound 11, N-((4,6-dimethyl-2-oxo-1,2-dihydropyridin-3-yl)methyl)-3-(ethyl((trans)-4-((2-methoxyethyl)(methyl)amino)cyclohexyl)amino)-5-methoxy-2-methylbenzamide] were, in that order, 673 nM and 6.27 nM.
In the case of `CCN(c1cc(OCCOC)cc(C(=O)NCc2c(C)cc(C)[nH]c2=O)c1C)[C@H]1CC[C@H](N(C)CCOC)CC1` [Compound 12, N-((4,6-dimethyl-2-oxo-1,2-dihydropyridin-3-yl)methyl)-3-(ethyl((trans)-4-((2-methoxyethyl)(methyl)amino)cyclohexyl)amino)-5-(2-methoxyethoxy)-2-methylbenzamide], the results for the IC50 in experiment [2] (setting [3]) and in experiment [1] were 308 nM and 29 nM, respectively.
Regarding `CCN(c1cc(OCCN2CCOCC2)cc(C(=O)NCc2c(C)cc(C)[nH]c2=O)c1C)[C@H]1CC[C@H](N(C)CCOC)CC1` [Compound 13, N-((4,6-dimethyl-2-oxo-1,2-dihydropyridin-3-yl)methyl)-3-(ethyl((trans)-4-((2-methoxyethyl)(methyl)amino)cyclohexyl)amino)-2-methyl-5-(2-morpholinoethoxy)benzamide], the IC50 in experiment [2] (setting [3]) is > 50000 nM.
`CCN(c1cc(OCCCN2CCOCC2)cc(C(=O)NCc2c(C)cc(C)[nH]c2=O)c1C)[C@H]1CC[C@H](N(C)CCOC)CC1` [Compound 14, N-((4,6-dimethyl-2-oxo-1,2-dihydropyridin-3-yl)methyl)-3-(ethyl((trans)-4-((2-methoxyethyl)(methyl)amino)cyclohexyl)amino)-2-methyl-5-(3-morpholinopropoxy)benzamide]: the IC50 in experiment [2] (setting [3]) is 17100 nM.
With `CCN(c1cc(-c2cnc(C)cn2)cc(C(=O)NCc2c(C)cc(C)[nH]c2=O)c1C)[C@H]1CC[C@H](N(C)CCOC)CC1` [Compound 18], the IC50 stood at 553 nM in experiment [2] (setting [3]) and 8.59 nM in experiment [1].
In turn, `CCN(c1cc(-c2cnc(C)nc2)cc(C(=O)NCc2c(C)cc(C)[nH]c2=O)c1C)[C@H]1CC[C@H](N(C)CCOC)CC1` [Compound 19] gave an IC50 in experiment [1] of 9.81 nM.
Still for that read-out and setting: the same measure for `CCN(c1cc(-c2cnc(OC)nc2)cc(C(=O)NCc2c(C)cc(C)[nH]c2=O)c1C)[C@H]1CC[C@H](N(C)CCOC)CC1` [Compound 20]: < 5 nM.
Consider `CCN(c1cc(-c2cnccn2)cc(C(=O)NCc2c(C)cc(C)[nH]c2=O)c1C)[C@H]1CC[C@H](N(C)CCOC)CC1` [Compound 22], for which the IC50 stood at 1040 nM in experiment [2] (setting [3]) and 28.3 nM in experiment [1].
The like results for `CCN(c1cc(-c2cnn(C)c2)cc(C(=O)NCc2c(C)cc(C)[nH]c2=O)c1C)[C@H]1CC[C@H](N(C)CCOC)CC1` [Compound 23] were, in that order, 401 nM and < 5 nM.
As to `CCN(c1cc(-c2ccc(CN3CCOCC3)cc2)cc(C(=O)NCc2c(C)cc(C)[nH]c2=O)c1C)[C@H]1CC[C@H](N(C)CCOC)CC1` [Compound 26], the IC50 in experiment [2] (setting [3]) was 87 nM; with WSU-DLCL2 cells (WSUDLCL2, Table 3A, read-out: WSU Prolif. IC50) it was 138 nM.
Turning to `CCN(c1cc(C#CC2CCN(C)CC2)cc(C(=O)NCc2c(C)cc(C)[nH]c2=O)c1C)C1CCOCC1` [Compound 105, N-((4,6-dimethyl-2-oxo-1,2-dihydropyridin-3-yl)methyl)-3-(ethyl(tetrahydro-2H-pyran-4-yl)amino)-2-methyl-5-((1-methylpiperidin-4-yl)ethynyl)benzamide], the IC50 in experiment [2] (setting [3]) is 150 nM.
In the case of `CCN(c1cc(C#CCN2CCOCC2)cc(C(=O)NCc2c(C)cc(C)[nH]c2=O)c1C)C1CCC(N(C)C)CC1` (centres unmarked) [Compound 111], the IC50 in experiment [2] (setting [4]) was found to be 14 nM; in the experiment with WSU-DLCL2 cells (setting [5]), 201 nM.
In the case of `CCN(c1cc(C#CCN2CCOCC2)cc(C(=O)NCc2c(C)cc(C)[nH]c2=O)c1C)[C@H]1CC[C@H](N(C)C)CC1` [Compound 111], the IC50 in experiment [1] is < 5 nM.
For the compound `CCN(c1cc(C#CCN2CCCN(C)CC2)cc(C(=O)NCc2c(C)cc(C)[nH]c2=O)c1C)C1CCC(N(C)C)CC1` (centres unmarked) [Compound 112], the IC50 in experiment [2] (setting [4]) was 179 nM; in the experiment with WSU-DLCL2 cells (setting [5]), 798 nM.
Turning to `CCN(c1cc(-c2ccc(N3CCN(C)CC3)nc2)cc(C(=O)NCc2c(C)cc(C)[nH]c2=O)c1C)C1C[C@@H](C)N[C@H](C)C1` (some centres unmarked) [Compound 124], the IC50 in experiment [2] (setting [4]) was 166 nM; in the experiment with WSU-DLCL2 cells (setting [5]), 158 nM.
The like results for `CCN(c1cc(-c2ccc(N3CCN(C)CC3)nc2)cc(C(=O)NCc2c(C)cc(C)[nH]c2=O)c1C)C1CCN(C)CC1` [Compound 125] were, in that order, 291 nM and 155 nM.
`CCN(c1cc(-c2ccc(COC)nc2)cc(C(=O)NCc2c(C(C)C)cc(C)[nH]c2=O)c1C)C1CCOCC1` [Compound 129]: the figures for the IC50 (in experiment [2] (setting [4]); in the experiment on WSU-DLCL2 cells (setting [5])) were 354 nM and 254 nM, respectively.
For `CCN(c1cc(-c2ccc(OC)nc2)cc(C(=O)NCc2c(C)cc(C)[nH]c2=O)c1C)C1CCOCC1` [Compound 130], in that order: 218 nM and 218 nM.
Consider `CCN(c1cc(-c2ccc(OC3CCN(C)CC3)nc2)cc(C(=O)NCc2c(C)cc(C)[nH]c2=O)c1C)C1CCOCC1` [Compound 133], for which the IC50 in the experiment with WSU-DLCL2 cells (setting [5]) is 503 nM.
Turning to `CCN(c1cc(-c2ccc(CN3CCCN(C)CC3)nc2)cc(C(=O)NCc2c(C)cc(C)[nH]c2=O)c1C)C1CCOCC1` [Compound 135], the IC50 is 192 nM in experiment [2] (setting [4]) and 176 nM with WSU-DLCL2 cells (setting [5]).
For `CCN(c1cc(-c2ccc(CN3CCCN(C)CC3)nc2)cc(C(=O)NCc2c(C(C)C)cc(C)[nH]c2=O)c1C)C1CCOCC1` [Compound 136], in that order: 259 nM and 566 nM.
For `CCN(c1cc(-c2ccc(N3CCCN(C)CC3)nc2)cc(C(=O)NCc2c(C)cc(C)[nH]c2=O)c1C)C1CCOCC1` [Compound 137], in that order: 56 nM and 505 nM.
The like results for `CCN(c1cc(-c2ccc(CN3CCCC3)nc2)cc(C(=O)NCc2c(C)cc(C)[nH]c2=O)c1C)C1CCOCC1` [Compound 138] were, in that order, 288 nM and 178 nM.
For `CCN(c1cc(-c2ccc(CN3CCCCC3)nc2)cc(C(=O)NCc2c(C)cc(C)[nH]c2=O)c1C)C1CCOCC1` [Compound 139], the results for the IC50 (in experiment [2] (setting [4]); in the experiment on WSU-DLCL2 cells (setting [5])) were 95.8 nM and 24.9 nM, respectively.
Consider `CCN(c1cc(-c2ccc(CN3CCC(O)CC3)nc2)cc(C(=O)NCc2c(C(C)C)cc(C)[nH]c2=O)c1C)C1CCOCC1` [Compound 140], for which the IC50 with WSU-DLCL2 cells (setting [5]) is 716 nM.
Regarding `CCN(c1cc(-c2ccc(CN3CCC[C@H](O)C3)nc2)cc(C(=O)NCc2c(C(C)C)cc(C)[nH]c2=O)c1C)C1CCOCC1` [Compound 141], the IC50 turned out to be 349 nM in experiment [2] (setting [4]) and 123 nM with WSU-DLCL2 cells (setting [5]).
As for `CCN(c1cc(-c2ccc(CN3CCOCC3)nc2)cc(C(=O)NCc2c(C(F)(F)F)cc(C)[nH]c2=O)c1C)C1CCOCC1` [Compound 142], the IC50 is 699 nM in experiment [2] (setting [4]) and 2000 nM in the experiment on WSU-DLCL2 cells (setting [5]).
As to `CCN(c1cc(-c2ccc(N3CCC(O)CC3)nc2)cc(C(=O)NCc2c(C)cc(C)[nH]c2=O)c1C)[C@H]1CC[C@H](N(C)C)CC1` [Compound 143], the IC50 in experiment [2] (setting [4]) was 18 nM; with WSU-DLCL2 cells (setting [5]), 276 nM.
For `CCN(c1cc(-c2ccc(N3CC(O)C3)nc2)cc(C(=O)NCc2c(C)cc(C)[nH]c2=O)c1C)[C@H]1CC[C@H](N(C)C)CC1` [Compound 144], in that order: 92 nM and 1540 nM.
For `CCN(c1cc(-c2ccc(CN3CCOCC3)nc2)cc(C(=O)NCc2c(C)cc(C)[nH]c2=O)c1C)[C@H]1CC[C@H](N(C)C)CC1` [Compound 145], in that order: 84.2 nM and 185 nM.
Take `CCN(c1cc(-c2ccc(CN3CCC(O)CC3)c(F)c2)cc(C(=O)NCc2c(C)cc(C)[nH]c2=O)c1C)C1CCOCC1` [Compound 153]: in the experiment on WSU-DLCL2 cells (setting [5]), the IC50 was determined as 476 nM.
Turning to `CCN(c1cc(-c2ccc(CN3CC(O)C3)c(F)c2)cc(C(=O)NCc2c(C)cc(C)[nH]c2=O)c1C)C1CCOCC1` [Compound 154], the IC50 came to 529 nM in experiment [2] (setting [4]) and 394 nM in the experiment on WSU-DLCL2 cells (setting [5]).
Take `CCN(c1cc(C#CC2CCN(C3CC3)CC2)cc(C(=O)NCc2c(C)cc(C)[nH]c2=O)c1C)C1CCOCC1` [Compound 157]: the IC50 was 140 nM in experiment [2] (setting [3]) and < 5 nM in experiment [1].
The like results for `CCN(c1cc(C#CC2CCN(C3CCC3)CC2)cc(C(=O)NCc2c(C)cc(C)[nH]c2=O)c1C)C1CCOCC1` [Compound 158] were, in that order, 215 nM and < 5 nM.
On to `CCN(c1cc(C#CC2CCN(C3CN(C)C3)CC2)cc(C(=O)NCc2c(C)cc(C)[nH]c2=O)c1C)C1CCOCC1` [Compound 162], for which, in experiment [1], the IC50 worked out at 12 nM.
